Results as given in ChEMBL document CHEMBL1201862, “PubChem BioAssay data set” (2004).
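Test compounds were applied to cells in 96-well plates for 48 hours at 5 doses. GI50: concentration for 50% inhibition of growth.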 Active and inactive are the calls of the source. No stated cut-off is given here; in the data, active = GI50 up to about 1.1 µM and inactive = higher.

Tests used:
Assay in all cases: DTP human tumour cell line panel, 48 h
HOP-62 = test system: HOP-62
LOX IMVI = test system: LOX IMVI
A549 = test system: A549
HOP-18 = test system: HOP-18
NCI/ADR-RES = test system: NCI/ADR-RES
T47D = test system: T47D
ACHN = test system: ACHN
NCI-H23 = test system: NCI-H23
OVCAR-5 = test system: OVCAR-5
UO-31 = test system: UO-31
786-0 = test system: 786-0
Hs-578T = test system: Hs-578T
NCI-H522 = test system: NCI-H522
SK-OV-3 = test system: SK-OV-3
SK-MEL-28 = test system: SK-MEL-28
MCF7 = test system: MCF7
KM12 = test system: KM12
MDA-N = test system: MDA-N
BT-549 = test system: BT-549
TK-10 = test system: TK-10

SMILES: NC1=NCN(C2OC(CO)C(O)C2O)C(=O)N1 (stereo not given)
- GI50 (HOP-62): 152 µM (inactive)
- GI50 (LOX IMVI): 2.23 µM (inactive)
- GI50 (A549): 18.5 µM (inactive)
- GI50 (HOP-18): 22.4 µM (inactive)
- GI50 (NCI/ADR-RES): 705 µM (inactive)
- GI50 (T47D): 15 µM (inactive)
- GI50 (ACHN): 0.802 µM (active)
- GI50 (NCI-H23): > 88.3 µM (inactive)
- GI50 (OVCAR-5): 183 µM (inactive)
- GI50 (UO-31): 145 µM (inactive)
- GI50 (786-0): 4.52 µM (inactive)
- GI50 (Hs-578T): 23.4 µM (inactive)
- GI50 (NCI-H522): 5.26 µM (inactive)
- GI50 (SK-OV-3): 126 µM (inactive)
- GI50 (SK-MEL-28): 57.3 µM (inactive)
- GI50 (MCF7): 9.84 µM (inactive)
- GI50 (KM12): 14.1 µM (inactive)
- GI50 (MDA-N): 7.87 µM (inactive)
- GI50 (BT-549): 9.62 µM (inactive)
- GI50 (TK-10): 11.4 µM (inactive)
